# Several values for one entry are separate records, joined by “and”; a condition that tells them apart may be missing. Equal entries are not always repeated.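 Growth conditions: 96-well plates. Treatment: test compound, 48 hours, 5 concentrations. Analysis: linear interpolation between bracketing concentrations; unreached endpoints set to highest concentration. GI50 marks 50% less growth. TGI marks complete inhibition of growth.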
# What was measured:
# Assay in all cases: NCI-60 cell line screen, 48 h
# HOP-62 NSCLC = test system: HOP-62 NSCLC
# UO-31 renal = test system: UO-31 renal
# ACHN renal = test system: ACHN renal
# SNB-75 CNS = test system: SNB-75 CNS
# LOX IMVI melanoma = test system: LOX IMVI melanoma
# SW-620 colon = test system: SW-620 colon
# SK-MEL-2 melanoma = test system: SK-MEL-2 melanoma
# A549 NSCLC = test system: A549 NSCLC
# UACC-62 melanoma = test system: UACC-62 melanoma
# HL-60(TB) leukemia = test system: HL-60(TB) leukemia
SMILES,GI50 (HOP-62 NSCLC) [µM],TGI (HOP-62 NSCLC) [µM],GI50 (UO-31 renal) [µM],TGI (UO-31 renal) [µM],GI50 (ACHN renal) [µM],TGI (ACHN renal) [µM],GI50 (SNB-75 CNS) [µM],TGI (SNB-75 CNS),GI50 (LOX IMVI melanoma) [µM],TGI (LOX IMVI melanoma) [µM],GI50 (SW-620 colon) [µM],TGI (SW-620 colon) [µM],GI50 (SK-MEL-2 melanoma) [µM],TGI (SK-MEL-2 melanoma) [µM],GI50 (A549 NSCLC) [µM],TGI (A549 NSCLC) [µM],GI50 (UACC-62 melanoma) [µM],TGI (UACC-62 melanoma),GI50 (HL-60(TB) leukemia) [µM],TGI (HL-60(TB) leukemia) [µM]
CC12CCCC(CC(=O)c3[nH]c4ccccc4c31)C2 (configuration not stated),0.813,50,2.4,> 100,0.856,> 100,0.204,21.7 µM,0.615,20.9,0.426,> 100,1.91,> 59.1,2.26,> 55.9,0.491,> 60.3 µM,0.34,3.94
N#Cc1cnsc1,,> 100,,> 100,,> 100,,> 100 µM,,> 100,,> 100,,> 100,,> 100,,> 100 µM,,> 100
CN1C(NC(=O)c2ccc(Cl)nc2)=NS(=O)(=O)c2cc(Cl)ccc21,> 100,> 100,> 100,> 100,> 100,> 100,> 100,> 100 µM,> 100,> 100,> 100,> 100,> 100,> 100,> 100,> 100,> 100,> 100 µM,> 100,> 100
CCCNC(=S)N/N=C(\C)c1ccccn1,0.517,17.6,0.293,> 82.8,0.0394,> 100,1.5,> 25.7 µM,0.0436,> 100,0.0498,> 100,3.58,> 100,0.447,> 100,0.192,3.28 µM,,0.333
NC1C2(CCCCCC2)NC(=O)C12CCCCCC2 (configuration not stated),,> 100,,> 100,,> 100,,> 100 µM,,> 100,,> 100,,> 100,,> 100,,> 100 µM,,> 100
COc1ccc(C2CC(=O)c3c(O)c(OC)c(OC)c(OC)c3O2)c(O)c1 (configuration not stated),0.211,28.2,1.09,21.4,1.2,58.2,0.0625,0.858 µM,0.432,19.2,0.0484,21.4,0.0809,23.4,0.41,28.8,0.0566,20.2 µM,0.0459,0.632
CCCCNC(=O)NS(=O)(=O)c1ccc(N2N=C(c3ccc(C)cc3C)CC2c2ccc(N(C)C)cc2)cc1 (configuration not stated),6.86,> 100,4.57,> 100,3.93,> 100,3.81,> 100 µM,4.4,16.5,4.14,> 100,3.13,8.46,3.2,> 100,2.18,6.12 µM,3.48,13.6
O=C(O)C(Sc1ccc(Cl)cc1)Sc1ccc(Cl)cc1,,> 100,,> 100,,> 100,,> 100 µM,,> 100,,> 100,,69.1,,> 100,,72.1 µM,,> 100
CC(C)CC(N)C(=O)O (configuration not stated),,> 100,,> 100,,> 100,,> 100 µM,,> 100,,> 100,,> 100,,> 100,,> 100 µM,,> 100
O=[N+]([O-])c1ccc2nnnn2c1,,> 100,,> 100,,> 100,,> 100 µM,,35.8,,> 100,,67.1,,> 100,,> 100 µM,,74.6
CC(C)(C)C1=CC(=CC=C2C=CN(CCCCCCCCCCCO)C=C2)C=C(C(C)(C)C)C1=O,,3.63,,3.67,,> 25.2,,5.4 µM,,1.69,,3.08,,3.5,,3.58,,2.96 µM,,3.71
O=C(C[C@@H](C(=O)NCc1cccc(C(F)(F)F)c1)N1C(=O)[C@@H](N2C(=O)OC[C@@H]2c2ccccc2)[C@H]1/C=C/c1ccccc1)NC1CCN(Cc2ccccc2)CC1,14.5,27.7,13.5,55.3,31.2,> 100,6.21,23 µM,4.03,18.9,3.91,17.3,14.1,30.6,5.86,21.4,3.34,13.8 µM,10.4,33.8
Nc1nccc(-c2c(-c3ccc(F)cc3)ncn2CCCN2CCOCC2)n1,> 25,> 25,11.6,> 25,19.4,> 25,> 25,> 25 µM,> 25,> 25,> 25,> 25,> 25,> 25,> 25,> 25,> 25,> 25 µM,> 25,> 25
COc1cc([N+](=O)[O-])ccc1NC(=O)C(F)(F)F,,> 100,,> 100,,> 100,,> 100 µM,,> 100,,> 100,,> 100,,> 100,,> 100 µM,,> 100
O=C(NC1CCCCCC1)C1C(=O)N(C2CCCCCC2)C(=O)/C1=N\O (configuration not stated),,36.5,,97.5,,> 100,,91.9 µM,,> 100,,> 100,,40.3,,> 100,,48.6 µM,,47.8
COc1cc2c(/C=C3/C(=O)Nc4cccc(Cl)c43)c(Cl)n(Cc3ccccc3)c2cc1C,9.73,53.9,5.69,> 100,3.58,33.3,21.1,> 100 µM,4.42,23.7,6.11,> 100,11,68.2,4.76,> 100,1.67,24.1 µM,5.22,> 100
COc1ccc(/C(=N/Nc2ccc([N+](=O)[O-])cc2)Sc2cc(Cl)c(C)cc2S(N)(=O)=O)cc1,5.94,16.4,8.49,> 41.7,6.34,17.5,2.68,6.39 µM,3.68,10.4,5.86,18.2,12.3,34,5.25,18.1,3.02,8.54 µM,40.3,> 100
CCOC(=O)c1c(C)n(Cc2ccc(OC)cc2)c2c1cc(O)c1[nH]c3c(c12)CCCC3,10.5,24.9,1.84,4.05,6.72,35.6,4.77,> 100 µM,3.91,16.6,3.72,13.9,2.39,7.05,8.71,71.9,1.97,4.61 µM,3.03,> 100
COC(=O)c1cc2c(c(C(=O)OC)c1O)C(=O)C=CC2=O,> 9.1,> 93.4,> 9.1,> 56.9,> 9.1,> 46.3,,> 9.1 µM and 31.8 µM,> 9.1,> 56.9,> 9.1,> 21.3,> 100,> 100,> 9.1,> 58.3,18,> 9.1 µM and 33.7 µM,,> 24.4
COc1ccc(-n2cc(-c3cc(OC)c(OC)c(OC)c3)[nH]c2=S)cc1OC,> 100,> 100,> 100,> 100,> 100,> 100,57,> 100 µM,> 100,> 100,> 100,> 100,> 100,> 100,> 100,> 100,> 100,> 100 µM,> 100,> 100
NCCCCn1c2c(c3ccccc3c1=O)C(=O)c1ccccc1-2,0.0528,0.272,0.123,1.45,0.0161,0.123,0.372,2.37 µM,0.0269,0.346,< 0.0185,1.38,2.38,> 42.4,0.0263,0.361,0.0467,0.422 µM,0.0382,0.0919
COC(=O)C1=C(c2ccc3c(c2)OCO3)O[C@H](c2ccc3c(c2)OCO3)[C@H]1COC(C)=O,,> 100,,> 100,,> 100,,> 100 µM,,> 100,,> 100,,> 100,,> 100,,> 100 µM,,> 100
Cc1ccc(C(=O)/C=C/c2ccccc2O)c(C)c1,,> 100,,> 100,,> 100,,8.01 µM,,> 100,,> 100,,> 100,,> 100,,> 100 µM,,> 100
CNC1C(=O)C(C)C(O)(C(CC(C)C(O)/C=C/C=C/CNC(=O)C(C)(C)C(O)\C(C)=C/C=C\C=C\Cc2cnc(C)o2)OC)C12C(=O)OC2COC (configuration not stated) (tested in a mixture with another compound),,24.1,,67.3,,> 43.2,,30.6 µM,,31.5,,> 46.9,,> 71.7,,> 100,,49.9 µM,,3.48
COc1ccc(C(=O)/C=C/c2cccnc2Nc2cc(OC)c(OC)c(OC)c2)cc1,2.19,12.7,1.17,3.04,1.9,4.06,3.4,17.6 µM,0.738,2.28,0.349,1.59,7.27,21,1.67,18.5,1.71,4.38 µM,1.27,4.01
CC[C@H](C)[C@H](NC(=O)[C@H]1CCCCN1C)C(=O)N(C)[C@H](CCc1nc(C(=O)N[C@@H](Cc2ccccc2)C[C@H](C)C(=O)OC)cs1)C(C)C,0.777,> 22.9,1.78,13.7,1.75,> 25,0.276,7.65 µM,0.353,> 25,0.213,> 25,0.104,15.9,1.1,> 25,0.0986,> 25 µM,0.0677,0.242
CC(=O)c1ccc(NC(=O)/C(Cc2ccccn2)=N/NC(=O)C[N+](C)(C)C)cc1,,> 100,,> 100,,> 100,,> 100 µM,,> 100,,> 100,,> 100,,> 100,,> 100 µM,,> 100
COc1cc(Cc2cc(OC)c(OC)c(OC)c2)ccc1O,,> 100,,> 100,,> 100,,28.6 µM,,> 100,,> 100,,64.5,,> 100,,> 100 µM,,6.55
N#CCCN(c1ccc(/C=C2\N=C(c3ccc(Cl)cc3)OC2=O)cc1)S(=O)(=O)c1ccccc1,,> 100,,> 100,,> 100,,> 100 µM,,> 100,,> 100,,> 100,,> 100,,> 100 µM,,> 100
COc1cc2c3c(n(CCCBr)c(=O)c2cc1OC)-c1ccc(NC(C)=O)cc1C3=O,1.29,21.3,5.68,65,3.07,> 100,12.1,54 µM,2.1,15,0.963,> 100,41.4,> 100,25.4,> 100,2.1,15.7 µM,0.55,7.78
